What was measured:
Experiment in all cases: relative viability (nuclei count vs DMSO), 5 days (fraction); higher = more cells survive
[1] = compound: C[C@]12O[C@H](C[C@]1(O)CO)n1c3ccccc3c3c4c(c5c6ccccc6n2c5c31)CNC4=O [Lestaurtinib] + CS(=O)(=O)N1CCN(Cc2cc3nc(-c4cccc5[nH]ncc45)nc(N4CCOCC4)c3s2)CC1 [Pictilisib] (partner 1 µM)
Method in brief: (§1)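 Dosing by pin tool came one day after lung cancer cell lines were seeded in 1536-well plates, using either one drug or a fixed anchor-drug dose plus five library-drug doses (not always all listed) in √10 steps. After 5 days, nuclei were counted on 4× images. Relative viability is treated-well nuclei count divided by vehicle-well nuclei count, and values are medians of duplicate plates.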

[2] = compound: C[C@]12O[C@H](C[C@]1(O)CO)n1c3ccccc3c3c4c(c5c6ccccc6n2c5c31)CNC4=O [Lestaurtinib] + Nc1nc2[nH]cc(CCc3ccc(C(=O)N[C@@H](CCC(=O)O)C(=O)O)cc3)c2c(=O)[nH]1 [Pemetrexed] (partner 0.2 µM)
Method in brief: as §1

[3] = compound: C[C@]12O[C@H](C[C@]1(O)CO)n1c3ccccc3c3c4c(c5c6ccccc6n2c5c31)CNC4=O [Lestaurtinib] + CCNC(=O)c1noc(-c2cc(C(C)C)c(O)cc2O)c1-c1ccc(CN2CCOCC2)cc1 [Luminespib] (partner 0.01 µM)
Method in brief: as §1

[4] = compound: C1/C(=C\C2=CC=CS2)/C(=O)/C(=C/C3=CC=CS3)/C1 + C[C@@H](Oc1cc(-c2cnn(C3CCNCC3)c2)cnc1N)c1c(Cl)ccc(F)c1Cl [Crizotinib] (partner 1 µM)
Method in brief: as §1

UMC-11
relative viability ([1]; first compound 0.005 µM): 0.83 | relative viability ([1]; first compound 0.01581 µM): 0.767 | relative viability ([1]; first compound 0.05 µM): 0.415 | relative viability ([1]; first compound 0.1581 µM): 0.366 | relative viability ([1]; first compound 0.5 µM): 0.145 | relative viability ([2]; first compound 0.005 µM): 0.923 | relative viability ([2]; first compound 0.01581 µM): 0.859 | relative viability ([2]; first compound 0.05 µM): 0.436 | relative viability ([2]; first compound 0.1581 µM): 0.256 | relative viability ([2]; first compound 0.5 µM): 0.176 | relative viability ([3]; first compound 0.005 µM): 0.936 | relative viability ([3]; first compound 0.01581 µM): 0.992 | relative viability ([3]; first compound 0.05 µM): 0.675 | relative viability ([3]; first compound 0.1581 µM): 0.286 | relative viability ([3]; first compound 0.5 µM): 0.164 | relative viability ([4]; first compound 0.2 µM): 0.62 | relative viability ([4]; first compound 0.6325 µM): 0.685 | relative viability ([4]; first compound 2 µM): 0.687 | relative viability ([4]; first compound 20 µM): 0.571
